This is an account of results in PubChem BioAssay (NCI).

Experiment in all cases: NCI tumour cell line growth inhibition, 48 h
In test [1] the test system is 786-0 renal.
Test [2] concerns BT-549 breast.
Test [3] deals with HCC-2998 colon.
In test [4] the test system is LOX IMVI melanoma.
The subject of test [5] is MDA-MB-231 breast.
Test [6] deals with MDA-N.
In test [7] the test system is PC-3 prostate.
Test [8] relates to SR leukemia.
In test [9] the test system is DLD-1 colon.
Test [10] relates to DMS 114 small cell lung.
The test system of test [11] is DMS 273 small cell lung.
For test [12], the system named is HOP-18 NSCLC.
Test [13] concerns KM20L2 colon.
The subject of test [14] is LXFL 529 NSCLC.
Test [15] deals with SNB-78 CNS.
Test [16] has as its system XF 498 CNS.

Where “and” joins values, the source holds several entries; their conditions need not be identical. Identical values can stand only once.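 Interpolation was linear, between the two tested concentrations surrounding the appropriate level; five concentrations were tested over 48 hours in 96-well plates. The concentration for 50% growth inhibition is given as GI50. TGI denotes the concentration required for complete inhibition of growth.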 Starred links: 1 amine or outer side, 2 acyl side, 3 side chain; linkers in the order of their positions; H or OH if unused. Positions of bridges follow the written chain, without caps; N, C: chain ends. Non-standard residues stand in square brackets, D forms with d. Residues, ends and D or L forms follow the SMILES beside them. Chains are numbered I, II in the order given. Actinocin(1to9) = Cc1c2oc3c(C)ccc(C(=O)[*:2])c3nc-2c(C(=O)[*:1])c(N)c1=O; NMeV = CN[CH](C(=O)O)C(C)C; Sar = CNCC(=O)O Where only a bound is given, the exact number is not on record here.

On to `O=c1[nH]c(Nc2ccc(Cl)c(C(F)(F)F)c2)nc2nc[nH]c12`, for which the TGI was 74.8 µM in [1]; more than 100 µM in test [2]; 57.4 µM in test [3]; 81.7 µM in [4]; more than 100 µM in [5]; more than 100 µM in test [6]. Moreover, the TGI in [7] is more than 100 µM.
For `Nc1ncnc2c1sc1nc3ccccc3n12`, the TGI in [2], in [3], in test [5] and in test [7] was more than 100 µM in each case.
For `CC(C)(C)OC(=O)NC(CCCCNC(=O)OCc1ccccc1)C(=O)NCCNc1ccc(NCCNC(=O)C(CCCCNC(=O)OCc2ccccc2)NC(=O)OC(C)(C)C)c2c1C(=O)c1ccccc1C2=O` (stereo unspecified), the TGI in test [1] was more than 100 µM; in test [2], more than 100 µM; in test [3], more than 100 µM; in test [4], more than 100 µM; in test [5], 38.2 µM; in test [6] it was more than 100 µM. In addition, the TGI in test [7] and in test [8] was more than 100 µM in each case.
As for `COc1c(CC=C(C)C)c(O)c(C(CC(C)C)c2c(O)c3c(c(C(C)=O)c2O)OC(C(C)(C)O)C3)c(O)c1C(C)=O` (stereo unspecified), the TGI is more than 12.5 µM in test [1]; 9.49 µM in test [2]; more than 12.5 µM in test [3]; more than 12.5 µM in test [4]; more than 12.5 µM in [6]; 10 µM in test [7]. Further, the TGI in [8] was determined as 6.93 µM.
For `O=C(O[C@@H](/C=C/c1ccccc1)P1(=O)N(Cc2ccccc2)[C@H]2CCCC[C@@H]2N1Cc1ccccc1)c1ccccc1`, the TGI is more than 100 µM in test [1]; more than 100 µM in [2]; 18.2 µM in test [3]; 14 µM in test [4]; 6.95 µM in test [5]; more than 100 µM in test [6]. Further, the TGI in test [7] is 8.54 µM; in [8], 13.8 µM.
With `O=C(CSc1nc2ccc([N+](=O)[O-])cc2s1)c1ccc2ccccc2c1`, the TGI in test [1], in test [2], in test [3], in test [4], in test [5] and in [6] was more than 100 µM each time. Besides, in test [7], the TGI is more than 100 µM.
`COc1ccc(C2NC(=S)Nc3c2c(=O)oc2c3ccc3ccccc32)cc1` (stereo unspecified): the TGI in test [1], in test [2], in test [4], in [5], in test [6] and in test [7] was more than 100 µM in each case. In test [8], this compound yielded a TGI of more than 100 µM.
As for `COCC1CCCN1c1ccc(C=N/C(C#N)=C(\N)C#N)cc1` (stereo unspecified), the GI50 in test [2] is 98.9 µM; in test [3], more than 100 µM; in [4], more than 100 µM; in test [5], 18.7 µM. For the same compound, the TGI in test [2], in test [3], in test [4] and in test [5] was more than 100 µM throughout.
Regarding `Cc1c(N2C(=O)/C(=C/c3ccc(Cl)cc3)N=C2c2ccccc2)c(=O)n(-c2ccccc2)n1C`, the TGI in test [1] was more than 100 µM; in [2], more than 100 µM; in [4], 35.6 µM; in test [5], more than 100 µM; in [6], 71.6 µM; in test [7], more than 100 µM. This compound registered a TGI in test [8] of 76.3 µM.
In the case of `CCOC(=O)C(/C(=N/S(=O)(=O)c1cc(C)c(Cl)cc1[S-])[n+]1ccc(N(C)C)cc1)=C(/O)c1ccc([N+](=O)[O-])cc1`, the TGI in test [1] was more than 100 µM; in test [2], 92.7 µM; in test [5] it was more than 100 µM; in test [6], more than 100 µM; in [7], 68.6 µM; in test [8], more than 100 µM.
`N#CC12Cc3cc4c(cc3-c3cccc(c31)CCN2C(=O)c1ccccc1)OCO4` (stereo unspecified): the TGI in [9], in test [10], in [11], in [3], in test [12] and in [13] was more than 100 µM in each case. Moreover, the TGI in [4], in test [14], in [15], in test [8] and in test [16] was more than 100 µM in each case.
As for `Cn1cnc([N+](=O)[O-])c1Sc1nc(N)nc2c1ncn2C1OC(CO)C(O)C1O` (stereo unspecified), the TGI in [1] is more than 100 µM; in test [2], more than 100 µM; in [9], more than 100 µM; in test [10], more than 100 µM; in test [11] it was more than 100 µM; in test [3], 15.3 µM. For the same compound, the TGI in test [12] is more than 100 µM; in test [13] it was 28.8 µM; in [4] it was more than 21.4 µM; in test [14], more than 100 µM; in [5], more than 100 µM; in test [6] it was more than 100 µM. In addition, the TGI was more than 100 µM in test [7], more than 100 µM in test [15], more than 35.6 µM in [8] and more than 100 µM in test [16].
Consider `Cc1ccccc1N=Nc1c(O)c(S(=O)(=O)O)cc2cc(S(=O)(=O)O)ccc12`, for which the TGI in test [1], in test [2], in test [3], in test [5], in test [6] and in test [7] was more than 100 µM in each case. In addition, the TGI in test [8] was more than 100 µM.
As for `COCCNCc1ccc(-c2cc3nccc(Oc4ccc(NC(=S)NC(=O)Cc5ccc(F)cc5)cc4F)c3s2)nc1`, the GI50 in test [3] was 4.68 µM; in [5], 1.97 µM. In addition, the TGI in test [3] amounted to 26.9 µM; in test [5] it was 4.1 µM.
`COc1cc2oc(=O)ccc2cc1C(=O)CC(C)C`: the TGI in [1], in [2], in [3], in [4], in [5] and in test [6] was more than 100 µM throughout. The TGI in test [7] and in test [8] was more than 100 µM throughout.
Consider `CCC(C)C1NC(=O)C(NC(=O)c2c3nc4c(C(=O)NC5C(=O)NC(C(C)CC)C(=O)N6CCCC6C(=O)N(C)CC(=O)N(C)C(C(C)C)C(=O)OC5C)ccc(C)c4oc-3c(C)c(=O)c2N)C(C)OC(=O)C(C(C)C)N(C)C(=O)CN(C)C(=O)C2CCCN2C1=O` (stereo unspecified) (I: TIP[Sar][NMeV] / II: TIP[Sar][NMeV]; ester I:1-I:C, II:1-II:C; linker I:N-II:N via Actinocin(1to9); configuration not given here), for which the TGI in [1] was 10.4 µM; in [2], 0.58 µM; in test [3], 0.0364 µM; in test [5], 0.156 µM and 0.481 µM; in test [7], 0.13 µM and 0.212 µM; in test [8], 0.00257 µM.
Consider `O=c1ccc2nc3cc(Br)ccc3sc-2c1`, for which the TGI in [9], in test [10], in test [11], in test [3], in test [13] and in test [14] was more than 100 µM throughout. Besides, the TGI in [15] and in test [8] was more than 100 µM in each case.
Take `Cn1c(=O)[nH]c2nncnc2c1=O`: the TGI in test [9] is more than 625 µM; in [10] it was 345 µM; in test [11] it was 106 µM; in test [3], more than 442 µM; in test [12] it was 61.1 µM; in test [13], more than 306 µM. Besides, the figures for the TGI in [4], in test [15] and in test [16] were more than 625 µM, more than 625 µM and 245 µM, respectively.
On to `C[N+]1(CCC(=O)c2ccco2)CC2CCC(CC2)C1` (stereo unspecified), for which the TGI in [1], in test [2], in test [4], in [5], in test [6] and in [7] was more than 100 µM in each case. For the same compound, in test [8], the TGI was more than 100 µM.
With `OC(c1ccccc1)(c1ccccc1)c1nccc2ccccc12`, the TGI in [1] was more than 100 µM; in [2], 37.2 µM; in test [4] it was 44.3 µM; in [5], more than 100 µM; in test [6], more than 100 µM; in [7] it was more than 100 µM. In test [8], this compound gave a TGI of more than 100 µM.
`O=C(O)c1ccc(C(=O)c2ccccc2C(=O)O)cc1C(=O)O`: the TGI in test [1], in [2], in test [3], in test [4], in test [5] and in test [6] was more than 100 µM each time. In addition, the TGI in test [7] and in test [8] was more than 100 µM in each case.
As to `Clc1ccccc1/C=c1\nc(-c2ccccc2)n2c1nc1ccccc12`, the TGI was more than 100 µM in test [1]; 50 µM in test [2]; more than 100 µM in test [4]; 73.1 µM in test [5]; more than 100 µM in test [6]; 27.9 µM in [7].
For `OCc1cn(C(c2ccccc2)(c2ccccc2)c2ccccc2)cn1`, the TGI in test [3], in test [4], in test [5], in test [6], in test [7] and in test [8] was more than 100 µM throughout.
Take `COc1ccc(C(=O)C2=NON3OC23C(=O)c2ccc(OC)cc2)cc1` (stereo unspecified): the TGI was 10.6 µM in test [1]; 21.5 µM in test [9]; 11.1 µM in test [10]; 36.4 µM in [11]; 32.8 µM in test [3]; 33.7 µM in test [12]. Moreover, the TGI was found to be 35.5 µM in test [13]; 11.4 µM in test [4]; 6.68 µM in test [14]; 42.3 µM in [15]; 23.9 µM in test [16].
As to `CC(=O)OC1CC[C@@]2(C)C(=CC[C@@H]3[C@@H]2CC[C@]2(C)Nc4nn(S(C)(=O)=O)cc4C[C@@H]32)C1` (stereo partly specified), the TGI was 45 µM in test [2]; more than 100 µM in [3]; more than 100 µM in test [5]; 74.5 µM in test [6]; more than 100 µM in test [7]; more than 100 µM in [8].
Take `COc1ccc2nc3c(C(=O)NCCN(C)C)cccc3cc2c1`: the TGI in [10] is 4.48 µM; in test [11], 6.15 µM; in test [3], 16.2 µM; in test [12], more than 100 µM; in test [13], 4.36 µM; in test [4], 3.59 µM. Moreover, the TGI in [15] came to 18.3 µM; in test [16] it was 4.01 µM.
In the case of `c1ccc(-c2nnn3c2NC2=C(CCCC2)C3c2ccccc2)cc1` (stereo unspecified), the TGI was 36.4 µM in test [1]; 27 µM in test [4]; 64.6 µM in test [5]; 32.3 µM in test [6]; 34.3 µM in test [7]; 31.1 µM in [8].
For `Nc1c(C(=O)O)nnc2cc(Cl)c(Cl)cc12`, the TGI in test [1], in [2], in test [3], in [4], in test [5] and in test [6] was more than 100 µM each time. Further, the TGI in test [7] and in [8] was more than 100 µM throughout.
